Data on nine compounds can be found in article PMC8890542, “Discovery of novel paeonol-based derivatives against skin inflammation in vitro and in vivo” (Journal of Enzyme Inhibition and Medicinal Chemistry, 2022).

Molecules are shown by their SMILES.

System in one data set: not given
Test: not given
Conditions: not given
Usually melting point stands for the temperature, or range, at which the solid turns liquid. As to `COc1cc(O)c(C(C)=O)cc1NC(=O)Nc1cccc(C)c1` [Compound B2, 1–(5-acetyl-4-hydroxy-2-methoxyphenyl)-3-(m-tolyl) urea], the melting point was in the range of 209 to 210 °C.

`CCN1CCN(C(=O)Nc2cc(C(C)=O)c(O)cc2OC)CC1` [Compound A13, N-(5-acetyl-4-hydroxy-2-methoxyphenyl)-4-ethylpiperazine-1-carboxamide] registered a melting point of 125 to 126 °C.

`COc1cc(O)c(C(C)=O)cc1NC(=O)N(C(C)C)C(C)C` [Compound A3, 3–(5-acetyl-4-hydroxy-2-methoxyphenyl)-1,1-diisopropylurea]: the melting point lay in the range of 148 to 149 °C.

On to `COc1cc(O)c(C(C)=O)cc1NC(=O)N1CCCC1` [Compound A12, N-(5-acetyl-4-hydroxy-2-methoxyphenyl) pyrrolidine-1-carboxamide], for which the melting point was in the range of 118 to 120 °C.

In turn, `COc1ccc(CNC(=O)Nc2cc(C(C)=O)c(O)cc2OC)cc1` [Compound C5, 1–(5-acetyl-4-hydroxy-2-methoxyphenyl)-3–(4-methoxybenzyl) urea] registered a melting point of 233 to 234 °C.

Turning to `CCN(CC)C(=O)Nc1cc(C(C)=O)c(O)cc1OC` [Compound A2, 3–(5-acetyl-4-hydroxy-2-methoxyphenyl)-1,1-diethylurea], the melting point fell in the range of 132 to 134 °C.

`COc1cc(O)c(C(C)=O)cc1NC(=O)N1CCOCC1` [Compound A11, N-(5-acetyl-4-hydroxy-2-methoxyphenyl) morpholine-4-carboxamide] gave a melting point of 220 to 221 °C.

Compound `COc1cc(O)c(C(C)=O)cc1NC(=O)Nc1ccc(C)cc1` [Compound B4, 1–(5-acetyl-4-hydroxy-2-methoxyphenyl)-3-(p-tolyl) urea] returned a melting point of 218 to 219 °C.

As to `COc1cc(O)c(C(C)=O)cc1NC(=O)Nc1ccc(OC(F)(F)F)cc1` [Compound B13, 1–(5-acetyl-4-hydroxy-2-methoxyphenyl)-3–(4-(trifluoromethoxy)phenyl) urea], the melting point lay within 209 to 210 °C.

In another data set the test system is LPS-induced nitric oxide production in RAW264.7 cells. Description: LPS-induced NO production, Griess Reagent assay. Type of data set: cell-based, mouse. The conditions noted are these: 10 µM. As to the method:
RAW264.7 cells (7 × 10^4 cells/well) were seeded into 48-well plate and used for experiments after 24 h. […] After 24 h collect cell supernatant, NO production was measured using Griess Reagent assay (Beyotime). Griess reagent were mixed at a ratio of 1:1, and reacted at room temperature for 15 min. Measurement of absorbance at […] with enzyme reader. At least three independent experiments were performed for the determination of IC50 values, which were shown as mean ± SD. All experimental data were analysed by using GraphPad Prism software, version 8.0 (GraphPad Inc.).
For `COc1cc(O)c(C(C)=O)cc1NC(=O)Nc1ccc(C)cc1` [Compound B4, 1–(5-acetyl-4-hydroxy-2-methoxyphenyl)-3-(p-tolyl) urea], the “Inhibitory activity on LPS-induced NO secretion, in words” value is “moderate inhibitory activity”.

The same data set, now with this note: Mus musculus, LPS (0.5 μg/mL) 24 h.
By IC50 is commonly meant the concentration that inhibits the measured activity by half. Turning to `COc1cc(O)c(C(C)=O)cc1NC(=O)Nc1cccc(C)c1` [Compound B2, 1–(5-acetyl-4-hydroxy-2-methoxyphenyl)-3-(m-tolyl) urea], the IC50 is over 10 µM.

The compound `CCN1CCN(C(=O)Nc2cc(C(C)=O)c(O)cc2OC)CC1` [Compound A13, N-(5-acetyl-4-hydroxy-2-methoxyphenyl)-4-ethylpiperazine-1-carboxamide] had an IC50 of over 10 µM.

Turning to `COc1cc(O)c(C(C)=O)cc1NC(=O)N(C(C)C)C(C)C` [Compound A3, 3–(5-acetyl-4-hydroxy-2-methoxyphenyl)-1,1-diisopropylurea], the IC50 is over 10 µM.

The compound `COc1cc(O)c(C(C)=O)cc1NC(=O)N1CCCC1` [Compound A12, N-(5-acetyl-4-hydroxy-2-methoxyphenyl) pyrrolidine-1-carboxamide] displayed an IC50 of over 10 µM.

In turn, `COc1ccc(CNC(=O)Nc2cc(C(C)=O)c(O)cc2OC)cc1` [Compound C5, 1–(5-acetyl-4-hydroxy-2-methoxyphenyl)-3–(4-methoxybenzyl) urea] had a concentration for half-maximal inhibition (IC50) of over 10 µM.

Consider `CCN(CC)C(=O)Nc1cc(C(C)=O)c(O)cc1OC` [Compound A2, 3–(5-acetyl-4-hydroxy-2-methoxyphenyl)-1,1-diethylurea], for which the IC50 was over 10 µM.

For `COc1cc(O)c(C(C)=O)cc1NC(=O)N1CCOCC1` [Compound A11, N-(5-acetyl-4-hydroxy-2-methoxyphenyl) morpholine-4-carboxamide], the half-inhibitory concentration (IC50) was over 10 µM.

In the case of `COc1cc(O)c(C(C)=O)cc1NC(=O)Nc1ccc(C)cc1` [Compound B4, 1–(5-acetyl-4-hydroxy-2-methoxyphenyl)-3-(p-tolyl) urea], the IC50 was 8.76 µM.

`COc1cc(O)c(C(C)=O)cc1NC(=O)Nc1ccc(OC(F)(F)F)cc1` [Compound B13, 1–(5-acetyl-4-hydroxy-2-methoxyphenyl)-3–(4-(trifluoromethoxy)phenyl) urea] registered a concentration for half-maximal inhibition (IC50) of over 10 µM.

Still in this data set, the particulars now being: Mus musculus, compounds 10 μM, 1 h, then LPS (0.5 μg/mL) 24 h, read-out: Inhibition rate±SD (%) against NO production.
Usually inhibition stands for the drop in the measured response relative to a control, in per cent. As to `COc1cc(O)c(C(C)=O)cc1NC(=O)Nc1cccc(C)c1` [Compound B2, 1–(5-acetyl-4-hydroxy-2-methoxyphenyl)-3-(m-tolyl) urea], the inhibition at 10 µM came to 48.7 ± 5.49%.

As for `CCN1CCN(C(=O)Nc2cc(C(C)=O)c(O)cc2OC)CC1` [Compound A13, N-(5-acetyl-4-hydroxy-2-methoxyphenyl)-4-ethylpiperazine-1-carboxamide], the inhibition at 10 µM was determined as 35.1 ± 2.87%.

As for `COc1cc(O)c(C(C)=O)cc1NC(=O)N(C(C)C)C(C)C` [Compound A3, 3–(5-acetyl-4-hydroxy-2-methoxyphenyl)-1,1-diisopropylurea], the inhibition at 10 µM stood at 15.4 ± 3.15%.

`COc1cc(O)c(C(C)=O)cc1NC(=O)N1CCCC1` [Compound A12, N-(5-acetyl-4-hydroxy-2-methoxyphenyl) pyrrolidine-1-carboxamide]: the inhibition at 10 µM is 32.1 ± 4.17%.

Regarding `COc1ccc(CNC(=O)Nc2cc(C(C)=O)c(O)cc2OC)cc1` [Compound C5, 1–(5-acetyl-4-hydroxy-2-methoxyphenyl)-3–(4-methoxybenzyl) urea], the inhibition at 10 µM amounted to 6.25 ± 5.16%.

In the case of `CCN(CC)C(=O)Nc1cc(C(C)=O)c(O)cc1OC` [Compound A2, 3–(5-acetyl-4-hydroxy-2-methoxyphenyl)-1,1-diethylurea], the inhibition at 10 µM is 30.2 ± 4.89%.

`COc1cc(O)c(C(C)=O)cc1NC(=O)N1CCOCC1` [Compound A11, N-(5-acetyl-4-hydroxy-2-methoxyphenyl) morpholine-4-carboxamide]: the inhibition at 10 µM is 29.8 ± 3.74%.

In the case of `COc1cc(O)c(C(C)=O)cc1NC(=O)Nc1ccc(C)cc1` [Compound B4, 1–(5-acetyl-4-hydroxy-2-methoxyphenyl)-3-(p-tolyl) urea], the inhibition at 10 µM amounted to 53.9 ± 4.12%.

`COc1cc(O)c(C(C)=O)cc1NC(=O)Nc1ccc(OC(F)(F)F)cc1` [Compound B13, 1–(5-acetyl-4-hydroxy-2-methoxyphenyl)-3–(4-(trifluoromethoxy)phenyl) urea]: the inhibition at 10 µM is 25.1 ± 4.18%.

System in another data set: not listed separately
The data set is described as follows: Cell viability assay (MTT), RAW264.7. Type of data set: cell-based, mouse. The conditions noted are these: mouse, RAW264.7 cells, read-out: Cytotoxicity IC50 with RAW264.7. As to the method:
RAW264.7 cells (1 × 10^4 cells/well) were seeded into 96-well plate and used for experiments after 24 h. Compounds (4 µM, 20 µM and 100 µM) treated cell for 24 h. Forty microliters of MTT solution (5 mg/mL, Sigma-Aldrich) was then added and incubated for an additional 4 h. After 4 h, cell culture supernatants were removed and DMSO (150 µL) was added into per well for dissolving the resulting crystals. Shaking about 1 0 ∼ 15 min and the absorbance at 492 nm was measured by a microplate reader (MQX200, Bio-Tek, Winooski, VT). At least three independent experiments were performed for the determination of IC50 values, which were shown as mean ± SD. All experimental data were analysed by using GraphPad Prism software, version 8.0 (GraphPad Inc.).
For the compound `COc1cc(O)c(C(C)=O)cc1NC(=O)Nc1cccc(C)c1` [Compound B2, 1–(5-acetyl-4-hydroxy-2-methoxyphenyl)-3-(m-tolyl) urea], the half-maximal inhibitory concentration (IC50) at 24 h was over 100 µM.

Turning to `CCN1CCN(C(=O)Nc2cc(C(C)=O)c(O)cc2OC)CC1` [Compound A13, N-(5-acetyl-4-hydroxy-2-methoxyphenyl)-4-ethylpiperazine-1-carboxamide], the IC50 at 24 h was over 100 µM.

Take `COc1cc(O)c(C(C)=O)cc1NC(=O)N(C(C)C)C(C)C` [Compound A3, 3–(5-acetyl-4-hydroxy-2-methoxyphenyl)-1,1-diisopropylurea]: the half-inhibitory concentration (IC50) at 24 h was over 100 µM.

In the case of `COc1cc(O)c(C(C)=O)cc1NC(=O)N1CCCC1` [Compound A12, N-(5-acetyl-4-hydroxy-2-methoxyphenyl) pyrrolidine-1-carboxamide], the IC50 at 24 h was over 100 µM.

Consider `COc1ccc(CNC(=O)Nc2cc(C(C)=O)c(O)cc2OC)cc1` [Compound C5, 1–(5-acetyl-4-hydroxy-2-methoxyphenyl)-3–(4-methoxybenzyl) urea], for which the IC50 at 24 h was over 100 µM.

In the case of `CCN(CC)C(=O)Nc1cc(C(C)=O)c(O)cc1OC` [Compound A2, 3–(5-acetyl-4-hydroxy-2-methoxyphenyl)-1,1-diethylurea], the IC50 at 24 h was over 100 µM.

As for `COc1cc(O)c(C(C)=O)cc1NC(=O)N1CCOCC1` [Compound A11, N-(5-acetyl-4-hydroxy-2-methoxyphenyl) morpholine-4-carboxamide], the IC50 at 24 h was over 100 µM.

`COc1cc(O)c(C(C)=O)cc1NC(=O)Nc1ccc(C)cc1` [Compound B4, 1–(5-acetyl-4-hydroxy-2-methoxyphenyl)-3-(p-tolyl) urea]: the half-maximal inhibitory concentration (IC50) at 24 h was over 100 µM.

In the case of `COc1cc(O)c(C(C)=O)cc1NC(=O)Nc1ccc(OC(F)(F)F)cc1` [Compound B13, 1–(5-acetyl-4-hydroxy-2-methoxyphenyl)-3–(4-(trifluoromethoxy)phenyl) urea], the concentration for half-maximal inhibition (IC50) at 24 h is over 100 µM.

System in a further data set: not listed separately
Description: Cell viability assay (MTT), LO2. The conditions noted are these: human, LO2 cells, read-out: Cytotoxicity IC50 with LO2. It is filed as cell-based.
On to `COc1cc(O)c(C(C)=O)cc1NC(=O)Nc1cccc(C)c1` [Compound B2, 1–(5-acetyl-4-hydroxy-2-methoxyphenyl)-3-(m-tolyl) urea], for which the IC50 at 24 h was over 100 µM.

In the case of `CCN1CCN(C(=O)Nc2cc(C(C)=O)c(O)cc2OC)CC1` [Compound A13, N-(5-acetyl-4-hydroxy-2-methoxyphenyl)-4-ethylpiperazine-1-carboxamide], the IC50 at 24 h is over 100 µM.

Regarding `COc1cc(O)c(C(C)=O)cc1NC(=O)N(C(C)C)C(C)C` [Compound A3, 3–(5-acetyl-4-hydroxy-2-methoxyphenyl)-1,1-diisopropylurea], the half-maximal inhibitory concentration (IC50) at 24 h was over 100 µM.

For `COc1cc(O)c(C(C)=O)cc1NC(=O)N1CCCC1` [Compound A12, N-(5-acetyl-4-hydroxy-2-methoxyphenyl) pyrrolidine-1-carboxamide], the half-maximal inhibitory concentration (IC50) at 24 h was over 100 µM.

With `COc1ccc(CNC(=O)Nc2cc(C(C)=O)c(O)cc2OC)cc1` [Compound C5, 1–(5-acetyl-4-hydroxy-2-methoxyphenyl)-3–(4-methoxybenzyl) urea], the IC50 at 24 h is over 100 µM.

Take `CCN(CC)C(=O)Nc1cc(C(C)=O)c(O)cc1OC` [Compound A2, 3–(5-acetyl-4-hydroxy-2-methoxyphenyl)-1,1-diethylurea]: the half-inhibitory concentration (IC50) at 24 h is over 100 µM.

As to `COc1cc(O)c(C(C)=O)cc1NC(=O)N1CCOCC1` [Compound A11, N-(5-acetyl-4-hydroxy-2-methoxyphenyl) morpholine-4-carboxamide], the IC50 at 24 h was over 100 µM.

`COc1cc(O)c(C(C)=O)cc1NC(=O)Nc1ccc(C)cc1` [Compound B4, 1–(5-acetyl-4-hydroxy-2-methoxyphenyl)-3-(p-tolyl) urea]: the IC50 at 24 h was over 100 µM.

On to `COc1cc(O)c(C(C)=O)cc1NC(=O)Nc1ccc(OC(F)(F)F)cc1` [Compound B13, 1–(5-acetyl-4-hydroxy-2-methoxyphenyl)-3–(4-(trifluoromethoxy)phenyl) urea], for which the 50% inhibitory concentration (IC50) at 24 h was over 100 µM.
